In patent US20250082624A1, “METHODS OF TREATING COGNITIVE IMPAIRMENT” (NeuroTherapia, Inc., priority 2023, published 2025):
“And” between values parts separate entries of the source, which are not always exact repeats. Equal values may be shown once. “Also recorded” adds a separate entry of the source.

Tests used:
[1] = tested on: AD cohort; test: Cognitive testing MOCA / MMSE in AD cohort; assay type: in vivo, human; design: MOCA / MOCA Mean (StdDev): scale not given here; settings: 90 mg QD 7 days
Text: Methods: All study procedures were approved by the IRB, and informed consent was obtained. Three cohorts of volunteers 45-80 years of age with well-controlled comorbidities (NOAD) and one cohort of AD patients diagnosed with cognitive impairment consistent with prodromal AD per International Working Group criteria or mild AD per National Institute on Aging—Alzheimer's Association criteria (n=6 active, 2 placebo per cohort) were enrolled. Participants were admitted to the study site for the duration of the dosing and returned 7-12 days after the last dose for a safety visit. Participants received NTRX-07 (10, 30, or 90 mg) or a placebo in a double-blinded randomization orally once daily for seven days. Subjects were assessed for changes in vital signs, including maneuvers to induce lightheadedness, electrocardiograms, 24-hour electroencephalograms (EEG), and safety laboratory studies. The second cohort returned and received a single repeat dose after a standard high-fat meal. The AD cohort also underwent cognitive testing and had blood samples for biomarkers drawn. Subjects had PK sampling done after the first and final dose of the study drug. An independent safety review committee conducted a blinded safety review of adverse events and plasma levels between each cohort.
Assessments: Subjects were assessed for changes in vital signs, orthostatic blood pressure, Romberg test, nystagmus, timed get up and go, electrocardiograms, electroencephalograms (EEG), and laboratory studies. Subjective questionnaires of drug effects (ARCI-M) were administered. Cohort B returned and received a single repeat dose after a standard high-fat meal. The AD cohort also underwent cognitive testing (MMSE, ADAS-COG, MOCA) and had blood samples for biomarkers drawn.
Exploratory endpoints include cognitive testing and potential plasma biomarkers of inflammation. The small group size (6 on treatment, 2 placebo) precludes statistical analysis, but the goals were to gain insights for future study design. Exploratory endpoints include: • MMSE, MOCA & ADAS-COG • IL-12p70, IL-10, IL-4, IL-5, INFg, IL-6, IL-8, IL-22, TNFa, IL-10, hCRP, Chitinase-3, TREM-2, IL-2, Neurogranin, Total Tau, AB42, AB40, NF-LIGHT, pTau-181

[2] = tested on: dogs; test: Dog toxicity (CNS safety issue raised by FDA); assay type: in vivo; settings: 200 mg/kg/day
[3] = tested on: healthy volunteers; settings: cited from earlier work
[4] = tested on: APP/PS1 mouse model of AD; settings: cited from earlier work

SMILES: CC1(Cc2ccccc2)COc2cc(C(=O)N3CCCCC3)ccc21 (stereo not drawn) [NTRX-07, 3-benzyl-3-methyl-2,3-dihydrobenzofuran-6-carboxylic acid-piperidine amide]
- Changes in cognitive scores (MMSE, MOCA) [1]: No significant changes in cognitive scores; also recorded: No appreciable changes
- MOCA Mean (StdDev) ([1]; Day 8): 19.7 ± 1.8
- MOCA ([1]; Day 8, individual subjects): 22 and 21 and 19 and 20 and 17
- MOCA Mean (StdDev) ([1]; Day −2 (baseline)): 20.5 ± 2.6
- MOCA ([1]; Day −2 (baseline), individual subjects): 22 and 21 and 24 and 18 and 17
- MOCA Mean (StdDev) ([1]; EOS Day 14-19): 20.7 ± 3.5
- MOCA ([1]; EOS Visit (Day 14-19), individual subjects): 25 and 15 and 20 and 23 and 22 and 19
- Seizures [2]: Seizures in 1 or 2 dogs
- Adverse effect at high doses ([3]; single doses of 3.5 and 4 mg/kg): transient lightheadedness
- Major adverse effects ([3]; single doses up to 2 mg/kg, healthy volunteers): no major adverse effects
- Clearance of Aβ ([4]; AD models, FIG. 4): improved clearance of A-beta proteins; also recorded: increases clearance of Aβ
- Aβ plaque clearance ([4]; APP/PS1 (Tg(APPswe,PSEN1dE9)85Dbo) mouse, FIG. 5): promotes Aβ plaque clearance
- CB2 increase / Iba1 colocalization in microglia (microglial activation) ([4]; APP/PS1 mouse model of AD, FIG. 3): returned towards baseline
- Inflammatory changes in the brain ([4]; preclinical AD models): decreased inflammatory changes in the brain
- Long-term potentiation ([4]; preclinical AD models): improved long-term potentiation
